Test results published in patent US20110306608A1, “COMPOSITIONS AND METHODS FOR TREATING VASCULAR, AUTOIMMUNE AND INFLAMMATORY DISEASES” (priority 2005, published 2011).

How the values were obtained:
[1] = Serum mycophenolic acid level by commercial assay in mice fed MMF in chow; format: in vivo, mouse
Text: No MPA was detected in the serum of control mice (data not shown).

[2] = test system: endothelial nitric oxide synthase (eNOS) expression; details: in vitro, cholesterol clamped conditions; cited from earlier work

Compound | average serum mycophenolic acid (MPA) level ([1]; high-dose group (MMF 100 mg/kg/day in high-fat chow)) [mg/L] | average serum mycophenolic acid (MPA) level ([1]; low-dose group (MMF 15 mg/kg/day in high-fat chow)) [mg/L] | upregulation of eNOS expression [2]
COc1c(C)c2c(c(O)c1C/C=C(\C)CCC(=O)O)C(=O)OC2 [MPA, mycophenolic acid] | 3.65 ± 0.3 | 1.16 ± 0.09 | –
CC[C@H](C)C(=O)O[C@H]1C[C@@H](C)C=C2C=C[C@H](C)[C@H](CC[C@@H]3C[C@@H](O)CC(=O)O3)[C@H]21 [lovastatin] | – | – | almost fourfold
